Laboratory results published in EP4640674A1, “CRYSTAL FORMS OF ETHOXIMOD, PREPARATION METHOD THEREFOR AND USE THEREOF” (Jiankuan (Suzhou) Biotechnology Co., Ltd, priority 2022, dated 2024).

Test: Stability of crystal form C on drying (XRPD)
Assay type: physicochemical
Excerpt: The sample was subjected to a TGA test. From the above results, it is speculated that the crystal form C is an unstable channel hydrate that is prone to crystal transformation during drying and placement, making the preparation of a pure phase difficult.

Structure (SMILES): CCc1nc(-c2ccc(-c3ccc(CCC(N)(CO)CO)cc3)cc2)co1.Cl [crystal form C, 2-amino-2-{2-(4'-(2-ethyloxazol-4-yl)-[1,1'-biphenyl]-4-yl)ethyl}-1,3-propylene glycol hydrochloride]
- crystal form after drying (XRPD) (purged with nitrogen at room temperature for 3 h): partially crystal transformed into the crystal form A
- crystal form after drying (XRPD) (vacuum at 50 °C under reduced pressure, dried overnight): partially crystal transformed into a crystal form A
